# Assay results taken from patent publication US20020122768A1, “Stable radiopharmaceutical compositions and methods for preparation thereof” (priority 2000, published 2002).
# Key:
# [1] = Solution stability of ^177Lu-C at −78° C., RCP by radio-HPLC; type: physicochemical; details: ^177Lu-C prepared using 2 mg GA, degassed, second stabilizer (20 mg AA, 20 mg DSA, 10 mg 2,3,4-THBA, 10 mg 3,4,5-THBA) added post-labeling
# [2] = Solution stability of ^90Y-A at −78° C., RCP by radio-HPLC; type: physicochemical; details: for RCP (%) change: t = 0 h to 72 h
# Method: The integrity of a radiopharmaceutical is measured by the radiochemical purity (RCP) of the radiolabeled compound using ITLC or more preferably HPLC. The advantage of using HPLC is that radio-impurities caused by radiolytic degradation can be separated from the radiopharmaceutical under optimized chromatographic conditions. […] The radiopharmaceutical compositions of this invention are effective in maintaining the long-term stability of samples that have been frozen, thawed, and re-tested periodically for 7 days.
# The initial RCP of a radiopharmaceutical is largely dependent on radiolabeling conditions such as pH, heating temperature and time. Once a radiopharmaceutical is prepared in high yield, the stability of the radiopharmaceutical composition is measured by the` RCP change of the radiopharmaceutical over a certain period of time. For comparison purposes, sodium gentisate or sodium ascorbate was often used as the reference since they have been used in various radiopharmaceutical formulations.
# Analytical Methods. HPLC method 1 used a HP-1100 HPLC system with a UV/visible detector (λ=220 nm), an IN-US radio-detector, and a Zorbax C18 column (4.6 mm×250 mm, 80 Å pore size). The flow rate was 1 mL/min with the mobile phase being isocratic from 0 to 18 min using 87% solvent A (0.025 M ammonium acetate buffer, pH 6.8) and 13% solvent B (acetonitrile), followed by an isocratic wash using 40% of solvent A and 60% solvent B from 19 to 25 min.
# The ITLC method used Gelman Sciences silica-gel ITLC paper strips and 1:1 mixture of acetone and saline as eluant. By this method, the radiolabeled compounds migrate to the solvent front while [^90Y]/^177Lu]colloid and [^90Y]/^177Lu]acetate remain at the origin.
# ^90Y-A was prepared using the procedure described in example 4. The resulting solution was the kept in a dry-ice box (−78° C.) for 3 days. Samples were analyzed at t=0, 24, 48, and 72 h.
# To a lead-shielded clean 5 mL vial containing 100 μg of COMPOUND A and 2 mg of 3,4,5-trihydroxybenzoic acid (3,4,5-THBA) dissolved in 0.5 mL of 0.5 M ammonium acetate buffer (pH=8.0) was added 20 μL Of ^90YCl3 solution (˜20 mCi) in 0.05 N HCl. The reaction mixture was heated at 100° C. for 5 min. After cooling to room temperature, 0.5 mL of 3,4,5-THBA solution (20 mg/mL) in 0.5 M ammonium acetate buffer (pH=8.0) was added to the solution above. A sample of the resulting mixture was then diluted 20-fold with GA solution (10 mg/mL, pH=7.4), and analyzed by HPLC (Method 1, injection volume=1 μL) and ITLC. […] The resulting mixture was kept at −78° C. for 3 days. Samples were analyzed at t=0, 1, 2, and 3 days.
# (§1) Synthesis of ^90Y-A was carried out according to the procedure described in example 12. After cooling to room temperature, 0.5 mL of 2,3,4-THBA solution (20 mg/mL) in 0.5 M ammonium acetate buffer (pH=8.0) was added to the solution containing ^90Y-A. The resulting mixture was kept at -78 °C for 3 days. Samples were analyzed at t=0, 1, 2, and 3 days.
# as §1, with “DSA” for “2,3,4-THBA”, “−78° C.” for “-78 °C”
# as §1, with “mL of HABA solution (20” for “mL of 2,3,4-THBA solution (20”, “kept at −78° C. for 3” for “kept at -78 °C for 3”, “3 days. […]” for “3 days.”
# To a lead-shielded clean 30 mL vial containing 1000 μg of COMPOUND A and 100 mg of sodium gentisate (GA) dissolved in 5 mL of 0.5 M ammonium acetate buffer (pH=7.5) was added ˜250 μL of ^90YCl3 solution (˜200 mCi) in 0.05 N HCl. The reaction mixture was heated at 100° C. for 15 min. […]
# [3] = ^90Y-A prepared using 2 mg 3,4,5-THBA, second stabilizer (0.5 mL of 20 mg/mL) added after radiolabeling, −78° C.
# [4] = ^90Y-A prepared using 2 mg 3,4,5-THBA, second stabilizer added after radiolabeling, −78° C.
# [5] = ^90Y-A, 10 mg stabilizer, dry-ice box (−78° C.)
# [6] = ^90Y-A, 10 mg stabilizer, −78° C.
RCP (%) t = 1 day [1],"RCP (%) t = 0 h [2, 3]","RCP (%) t = 24 h [2, 3]","RCP (%) t = 48 h [2, 3]","RCP (%) t = 72 h [2, 3]","RCP (%) change [2, 4]","RCP (%) t = 0 h [2, 5]","RCP (%) t = 24 h [2, 5]","RCP (%) t = 48 h [2, 5]","RCP (%) t = 72 h [2, 5]","RCP (%) change [2, 6]",Molecule
97.4%,98.5%,98.9%,96.7%,96.7%,1.8%,94.4%,94.0%,94.1%,94.2%,0.2%,"2,4-disulfonatobenzeneamine [DSA]"
96.6%,98.1%,99.2%,99.0%,98.2%,0%,–,–,–,–,–,"O=C(O)c1ccc(O)c(O)c1O [2,3,4-THBA, 2,3,4-trihydroxybenzoic acid]"
97.9%,97.5%,98.4%,98.3%,96.6%,0.9%,93.3%,92.4%,93.5%,93.5%,0.2%,"O=C(O)c1cc(O)c(O)c(O)c1 [3,4,5-THBA, 3,4,5-trihydroxybenzoic acid]"
